In the experiment the test system is cardiac microtissues (CMTs). The format is cell-based. Conditions: measured after 1 h. As for the experimental part: In a first example, cardiomyocytes were isolated from 0-1 day neonatal Sprague Dawley rat pups by a Trypsin digestion protocol as previously described. The resulting cell population was immediately subjected to CMT generation. CMTs were cultured in high glucose DMEM (Mediatech, Inc.) containing 10% horse serum (Invitrogen), 2% chick embryo extract (Charles River Laboratories International, Inc.), 4 mM L-glutamine, 1 mM sodium pyruvate, 100 units/mL penicillin, and […] streptomycin (all from Invitrogen). Cell culture medium was changed every day. Stock solution of Isoproterenol (Sigma-Aldrich) of 10 mM was made in MilliQ water and stock solution of Digoxin (GlaxoSmithKline) of 10 mM was made in DMSO. Calcium staining was obtained by incubating CMTs for 1 h with the acetoxymethyl ester of fluo-3 (fluo-3/(AM), Invitrogen) as a fluorescent dye at 2 μM in PBS with 0.02% of Pluronic F127 (BASF).
Before cell seeding, the PDMS templates were sterilized in 70% ethanol followed by UV irradiation for 15 min and treated with 0.2% Pluronic F127 for 60 min to reduce cell adhesion. A reconstitution mixture, consisting of 1 mg/mL or 2.5 mg/mL liquid neutralized collagen I from rat tail (BO Biosciences) and 0.5 mg/mL fibrinogen from bovine plasma (Sigma-Aldrich), was then added to the surface of the substrates on ice and templates were degassed under vacuum to remove bubbles in the liquid. A cooled suspension of half a million cells within reconstitution mixture was then added to the substrate and the entire assembly was centrifuged to drive the cells into the micropatterned wells, resulting in around 500 cells per well. Excess collagen/fibrinogen and cells were removed by de-wetting the surface of the substrate before incubating at 37° C. to induce collagen polymerization. The appropriate media was then added to each substrate. By using a live/dead cell viability assay (Invitrogen), cell viability over time was estimated.
For quantifying microtissue forces, brightfield and fluorescence images were taken at 20 Hz within each template, using a Photometrics Evolve EMCCOcamera (Photometrics), and an A-Plan 10× objective on a Nikon Eclipse Ti (Nikon Instruments Inc.) equipped with a live cell incubator. Only tissues that were uniformly anchored to the tips of the cantilevers were included in the analysis. The displacement of fluorescent micro-beads at the top of the cantilevers was then tracked with using the SpotTracker plug-in in ImageJ (National Institutes of Health).
In one example, it was also examined whether CMTs responded appropriately to two cardiac compounds, isoproterenol and digoxin. To study the dose-response of the CMTs to these compounds, their concentrations were varied from 1 nM to 10 μM and the dynamic stress and the spontaneous frequency of CMTs were measured after 1 h (FIG. 13). Isoproterenol can be used as a β-adrenergic agonist with a positive chronotropic effect whereas digoxin is a cardiac glycoside that inhibits Na+/K+-ATPase (sodium pump), activates sarcoplasmic reticulum Ca2+-release channels and induces positive inotropic effects.

Experimental findings from patent US9512396B2, “In vitro microphysiological system for high throughput 3D tissue organization and biological function” (The Trustees of the University of Pennsylvania, priority 2011, dated 2016) are described below.

Where two headings read alike, the source gives them in different places.

In the case of `CC(C)NCC(O)c1ccc(O)c(O)c1` (centres unmarked) [Isoproterenol], for the setting “1 nM”, the “effect on dynamic stress and spontaneous frequency of CMTs” value is listed as “no observable effect”. The “change of spontaneous frequency” value is reported as “doubling” (1 μM) and “tripling” (10 μM). For the same compound, for the setting “1 and 10 nM (so in the source)”, the “inotropic effect (contractility, dynamic stress)” value is reported as “slight negative inotropic effect”. In addition, the “chronotropic action (spontaneous frequency)” value (1 and 10 μM) is “positive chronotropic action”. Also, the “inotropic action (contractility, dynamic stress)” value (10 and 100 nM) was “slight positive inotropic action”.

`C[C@H]1O[C@@H](O[C@H]2[C@@H](O)C[C@H](O[C@H]3[C@@H](O)C[C@H](O[C@H]4CC[C@@]5(C)[C@H](CC[C@@H]6[C@@H]5C[C@@H](O)[C@]5(C)[C@@H](C7=CC(=O)OC7)CC[C@]65O)C4)O[C@@H]3C)O[C@@H]2C)C[C@H](O)[C@@H]1O` [Digoxin] had a maximal stress increase (1 μM) of 22±4%. Moreover, where the note is “10 μM”, the “chronotropic effect (spontaneous frequency)” value is listed as “strong negative chronotropic effect”, the “inotropic effect (dynamic stress)” value is reported as “almost no inotropic effect” and the spontaneous frequency entry is recorded as “under 0.04±0.01 Hz”. Further, the “inotropic response (dynamic stress)” value (between 1 nM and 1 μM) is given as “positive inotropic response”.
